Key:
Format in all cases: in vivo, rat
retinoic acid receptor α = assay: Brain gene expression (TLDA qPCR); conditions: 15 wk diet; control diet = 1
Protocol: (§1) RNA was extracted from the flash-frozen half brains of the 15 week postweaning rats. The brain was briefly thawed and dissected to isolate the brainstem, cerebellum, cortex, hippocampus, striatum, and the rest of the brain. RNA was extracted from the brain regions using Trizol reagent (Ambion; Life Technologies, Burlington, ON, Canada) according to the manufacturer's protocol. […] Chloroform was added to the Trizol reagent at a ratio of 1:5 (chloroform:Trizol reagent) and the solution was mixed and incubated at room temperature. The solution was then centrifuged at 12,000 g for 15 min at 4°C. […] The samples were then centrifuged at 12,000 g for 10 min at 4°C to precipitate the RNA pellet. […] The pellet was allowed to air dry, and was then dissolved in RNase-free water. A Nanodrop 1000 (NanoDrop Technologies Inc., Wilmington, DE) was used to determine the concentration and purity of each sample by measuring absorbance at 260 and 280 nm. Each sample was aliquoted to make 1 μg of RNA per 10 μl of sample and stored at -80°C. A high-capacity cDNA reverse transcription kit (Applied Biosystems, Burlington, ON, Canada) was used to reverse transcribe 1 μg of RNA according to the manufacturer's instructions. Newly synthesized cDNA was stored at -20°C until the following day when it was loaded onto TaqMan low density array (TLDA) plates. Quantitative real-time PCR was performed using TLDA (Applied Biosystems) on the 7900HT real-time PCR system (Applied Biosystems). cDNA (50 ng) was diluted with water to make a volume of 50 μl and mixed with 50 μl of TaqMan Universal PCR Master Mix (Applied Biosystems). The mixture was then loaded onto a customized preconfigured 384-well TLDA plate according to the manufacturer's protocol. TaqMan gene expression assays were used to assess 21 genes that were previously reported to be differentially expressed with n-3 deprivation. […] All genes were normalized to phosphoglycerate kinase 1. Similar results were found when normalizing to β-actin or 18S rRNA.

[1] = test system: brain-derived neurotrophic factor; assay: Brain gene expression (TLDA qPCR); conditions: 15 wk diet; control diet = 1
Protocol: as §1

[2] = test system: epidermal growth factor receptor; assay: Brain gene expression (TLDA qPCR); conditions: 15 wk diet; control diet = 1
Protocol: as §1

tyrosine hydroxylase = assay: Brain gene expression (TLDA qPCR); conditions: 15 wk diet; control diet = 1
Protocol: as §1

heme oxygenase 1 = assay: Brain gene expression (TLDA qPCR); conditions: 15 wk diet; control diet = 1
Protocol: as §1

uncoupling protein 2 = assay: Brain gene expression (TLDA qPCR); conditions: 15 wk diet; control diet = 1
Protocol: as §1

TNF-α receptor member 1a = assay: Brain gene expression (TLDA qPCR); conditions: 15 wk diet; control diet = 1
Protocol: as §1

PPARg = assay: Brain gene expression (TLDA qPCR); conditions: 15 wk diet; control diet = 1
Protocol: as §1

[3] = test system: vesicular monoamine transporter 2; assay: Brain gene expression (TLDA qPCR); conditions: 15 wk diet; control diet = 1
Protocol: as §1

retnoid X receptor β = assay: Brain gene expression (TLDA qPCR); conditions: 15 wk diet; control diet = 1
Protocol: as §1

[4] = test system: prostaglandin E synthase 3; assay: Brain gene expression (TLDA qPCR); conditions: 15 wk diet; control diet = 1
Protocol: as §1

COX-2 = assay: Brain gene expression (TLDA qPCR); conditions: 15 wk diet; control diet = 1
Protocol: as §1

group 6 iPLA2 = assay: Brain gene expression (TLDA qPCR); conditions: 15 wk diet; control diet = 1
Protocol: as §1

[5] = Body weight and food intake, balance study; conditions: 15 wk diet
Protocol: The remaining pups were weaned, singly housed, continued on the diet of their respective dam for 15 weeks, and were allocated to either the balance study (n = 11), the steady-state infusion study (n = 4), or the brain DHA uptake study (n = 3). For the balance study, the rats were weighed, food intake was determined, and uneaten food was replaced with fresh food on a weekly basis. Rats were euthanized by CO2 asphyxiation. Brains were removed and dissected sagittally. Carcasses and one half brain per rat were stored immediately at −80°C (to be later analyzed for lipid content). The other half brain was flash-frozen with 2-methylbutane on dry ice, and then stored at −80°C until analyzed for mRNA expression. The PUFA content in the brains and bodies of these rats after the 15 week feeding period was compared with the baseline PUFA content (described above) to determine PUFA accretion (equation 1, described below). For the steady-state infusion study and the brain DHA uptake study, a jugular vein catheter was surgically implanted into the rats. After allowing a 24 h recovery, rats were infused with ^2H14-ALA or ^14C-DHA, respectively (described below). The ^2H14-ALA infusion was used to determine DHA synthesis rates following a previously published method ([24]) and the ^14C-DHA infusion was utilized to measure the brain DHA uptake rate by following previously published methods ([26]).

CC/C=C\C/C=C\C/C=C\CCCCCCCC(=O)O [ALA, α-linolenic acid]
Brainstem gene expression: RARa (retinoic acid receptor α): 1.00 RQ
Cerebellum gene expression: RARa (retinoic acid receptor α): 1.07 RQ
Cortex gene expression: RAR a (retinoic acid receptor α): 1.03 RQ
Hippocampus gene expression: RAR a (retinoic acid receptor α): 0.96 RQ
Rest of brain gene expression: RAR a (retinoic acid receptor α): 0.91 RQ
Striatum gene expression: RARa (retinoic acid receptor α): 0.93 RQ
Brainstem gene expression: BDNF [1]: 0.72 RQ
Cerebellum gene expression: BDNF [1]: 0.98 RQ
Cortex gene expression: BDNF [1]: 1.03 RQ
Hippocampus gene expression: BDNF [1]: 1.03 RQ
Rest of brain gene expression: BDNF [1]: 0.99 RQ
Striatum gene expression: BDNF [1]: 1.01 RQ
Brainstem gene expression: EGFR [2]: 1.05 RQ
Cerebellum gene expression: EGFR [2]: 1.26 RQ
Cortex gene expression: EGFR [2]: 0.94 RQ
Hippocampus gene expression: EGFR [2]: 1.10 RQ
Rest of brain gene expression: EGFR [2]: 1.06 RQ
Striatum gene expression: EGFR [2]: 1.00 RQ
Brainstem gene expression: TH (tyrosine hydroxylase): 1.24 RQ
Cerebellum gene expression: TH (tyrosine hydroxylase): 1.60 RQ
Cortex gene expression: TH (tyrosine hydroxylase): 1.56 RQ
Hippocampus gene expression: TH (tyrosine hydroxylase): 1.15 RQ
Rest of brain gene expression: TH (tyrosine hydroxylase): 1.09 RQ
Striatum gene expression: TH (tyrosine hydroxylase): 1.12 RQ
Brainstem gene expression: HO1 (heme oxygenase 1): 1.01 RQ
Cerebellum gene expression: HO1 (heme oxygenase 1): 1.21 RQ
Cortex gene expression: HO1 (heme oxygenase 1): 1.05 RQ
Hippocampus gene expression: HO1 (heme oxygenase 1): 1.01 RQ
Rest of brain gene expression: HO1 (heme oxygenase 1): 1.00 RQ
Striatum gene expression: HO1 (heme oxygenase 1): 1.09 RQ
Brainstem gene expression: UCP2 (uncoupling protein 2): 1.05 RQ
Cerebellum gene expression: UCP2 (uncoupling protein 2): 1.17 RQ
Cortex gene expression: UCP2 (uncoupling protein 2): 1.04 RQ
Hippocampus gene expression: UCP2 (uncoupling protein 2): 1.26 RQ
Rest of brain gene expression: UCP2 (uncoupling protein 2): 0.97 RQ
Striatum gene expression: UCP2 (uncoupling protein 2): 1.09 RQ
Brainstem gene expression: TNFaR1a (TNF-α receptor member 1a): 1.30 RQ
Cerebellum gene expression: TNFaR1a (TNF-α receptor member 1a): 1.12 RQ
Cortex gene expression: TNFaR1a (TNF-α receptor member 1a): 1.11 RQ
Hippocampus gene expression: TNFa R 1a (TNF-α receptor member 1a): 1.14 RQ
Rest of brain gene expression: TNFaR1a (TNF-α receptor member 1a): 0.95 RQ
Striatum gene expression: TNFaR1a (TNF-α receptor member 1a): 0.98 RQ
Brainstem gene expression: PPARg (PPARg): 0.91 RQ
Cerebellum gene expression: PPARg (PPARg): 1.17 RQ
Cortex gene expression: PPARg (PPARg): 1.21 RQ
Hippocampus gene expression: PPARγ (PPARg): 0.47 RQ
Rest of brain gene expression: PPARg (PPARg): 1.18 RQ
Striatum gene expression: PPARg (PPARg): 0.90 RQ
Brainstem gene expression: VMAT2 [3]: 1.34 RQ
Hippocampus gene expression: VMAT 2 [3]: 0.84 RQ
Rest of brain gene expression: VMAT2 [3]: 1.12 RQ
Brainstem gene expression: RXRb (retnoid X receptor β): 1.15 RQ
Cerebellum gene expression: RXRb (retnoid X receptor β): 1.04 RQ
Cortex gene expression: RXR b (retnoid X receptor β): 1.02 RQ
Hippocampus gene expression: RXR b (retnoid X receptor β): 0.97 RQ
Rest of brain gene expression: RXR b (retnoid X receptor β): 0.91 RQ
Striatum gene expression: RXRb (retnoid X receptor β): 1.10 RQ
Brainstem gene expression: PGES3 [4]: 1.14 RQ
Cerebellum gene expression: PGES3 [4]: 1.09 RQ
Cortex gene expression: PGES3 [4]: 0.91 RQ
Hippocampus gene expression: PGES3 [4]: 1.00 RQ
Rest of brain gene expression: PGES3 [4]: 0.99 RQ
Striatum gene expression: PGES3 [4]: 0.95 RQ
Brainstem gene expression: COX 2 (COX-2): 0.87 RQ
Cerebellum gene expression: COX 2 (COX-2): 1.46 RQ
Cortex gene expression: COX 2 (COX-2): 1.17 RQ
Hippocampus gene expression: COX 2 (COX-2): 1.15 RQ
Rest of brain gene expression: COX 2 (COX-2): 0.92 RQ
Striatum gene expression: COX 2 (COX-2): 1.04 RQ
Brainstem gene expression: iPLA2 (group 6 iPLA2): 0.89 RQ
Cerebellum gene expression: iPLA2 (group 6 iPLA2): 1.02 RQ
Cortex gene expression: iPLA2 (group 6 iPLA2): 0.92 RQ
Hippocampus gene expression: iPLA2 (group 6 iPLA2): 1.02 RQ
Rest of brain gene expression: iPLA2 (group 6 iPLA2): 0.95 RQ
Striatum gene expression: iPLA2 (group 6 iPLA2): 0.96 RQ
Mean body weight at 15 weeks [5]: 673 ± 25 g

CC/C=C\C/C=C\C/C=C\C/C=C\C/C=C\C/C=C\CCC(=O)O [DHA, Docosahexaenoic acid]
Brainstem gene expression: RARa (retinoic acid receptor α): 1.52 RQ
Cerebellum gene expression: RARa (retinoic acid receptor α): 1.08 RQ
Cortex gene expression: RAR a (retinoic acid receptor α): 1.20 RQ
Hippocampus gene expression: RAR a (retinoic acid receptor α): 0.97 RQ
Rest of brain gene expression: RAR a (retinoic acid receptor α): 1.09 RQ
Striatum gene expression: RARa (retinoic acid receptor α): 0.93 RQ
Brainstem gene expression: BDNF [1]: 1.19 RQ
Cerebellum gene expression: BDNF [1]: 0.88 RQ
Cortex gene expression: BDNF [1]: 1.16 RQ
Hippocampus gene expression: BDNF [1]: 1.13 RQ
Rest of brain gene expression: BDNF [1]: 0.99 RQ
Striatum gene expression: BDNF [1]: 2.10 RQ
Brainstem gene expression: EGFR [2]: 1.14 RQ
Cerebellum gene expression: EGFR [2]: 0.96 RQ
Cortex gene expression: EGFR [2]: 0.99 RQ
Hippocampus gene expression: EGFR [2]: 1.04 RQ
Rest of brain gene expression: EGFR [2]: 1.08 RQ
Striatum gene expression: EGFR [2]: 0.82 RQ
Brainstem gene expression: TH (tyrosine hydroxylase): 0.98 RQ
Cerebellum gene expression: TH (tyrosine hydroxylase): 1.23 RQ
Cortex gene expression: TH (tyrosine hydroxylase): 1.11 RQ
Hippocampus gene expression: TH (tyrosine hydroxylase): 1.01 RQ
Rest of brain gene expression: TH (tyrosine hydroxylase): 1.18 RQ
Striatum gene expression: TH (tyrosine hydroxylase): 1.19 RQ
Brainstem gene expression: HO1 (heme oxygenase 1): 0.99 RQ
Cerebellum gene expression: HO1 (heme oxygenase 1): 0.99 RQ
Cortex gene expression: HO1 (heme oxygenase 1): 1.11 RQ
Hippocampus gene expression: HO1 (heme oxygenase 1): 1.03 RQ
Rest of brain gene expression: HO1 (heme oxygenase 1): 1.04 RQ
Striatum gene expression: HO1 (heme oxygenase 1): 0.94 RQ
Brainstem gene expression: UCP2 (uncoupling protein 2): 1.08 RQ
Cerebellum gene expression: UCP2 (uncoupling protein 2): 0.87 RQ
Cortex gene expression: UCP2 (uncoupling protein 2): 1.02 RQ
Hippocampus gene expression: UCP2 (uncoupling protein 2): 1.07 RQ
Rest of brain gene expression: UCP2 (uncoupling protein 2): 1.20 RQ
Striatum gene expression: UCP2 (uncoupling protein 2): 1.00 RQ
Brainstem gene expression: TNFaR1a (TNF-α receptor member 1a): 1.21 RQ
Cerebellum gene expression: TNFaR1a (TNF-α receptor member 1a): 0.96 RQ
Cortex gene expression: TNFaR1a (TNF-α receptor member 1a): 1.10 RQ
Hippocampus gene expression: TNFa R 1a (TNF-α receptor member 1a): 0.99 RQ
Rest of brain gene expression: TNFaR1a (TNF-α receptor member 1a): 1.06 RQ
Striatum gene expression: TNFaR1a (TNF-α receptor member 1a): 0.88 RQ
Brainstem gene expression: PPARg (PPARg): 1.11 RQ
Cerebellum gene expression: PPARg (PPARg): 1.07 RQ
Cortex gene expression: PPARg (PPARg): 1.36 RQ
Hippocampus gene expression: PPARγ (PPARg): 0.47 RQ
Rest of brain gene expression: PPARg (PPARg): 1.14 RQ
Striatum gene expression: PPARg (PPARg): 0.83 RQ
Brainstem gene expression: VMAT2 [3]: 9.94 RQ
Hippocampus gene expression: VMAT 2 [3]: 1.26 RQ
Rest of brain gene expression: VMAT2 [3]: 1.08 RQ
Brainstem gene expression: RXRb (retnoid X receptor β): 1.29 RQ
Cerebellum gene expression: RXRb (retnoid X receptor β): 0.96 RQ
Cortex gene expression: RXR b (retnoid X receptor β): 1.05 RQ
Hippocampus gene expression: RXR b (retnoid X receptor β): 1.07 RQ
Rest of brain gene expression: RXR b (retnoid X receptor β): 1.12 RQ
Striatum gene expression: RXRb (retnoid X receptor β): 1.02 RQ
Brainstem gene expression: PGES3 [4]: 1.10 RQ
Cerebellum gene expression: PGES3 [4]: 0.97 RQ
Cortex gene expression: PGES3 [4]: 1.07 RQ
Hippocampus gene expression: PGES3 [4]: 1.11 RQ
Rest of brain gene expression: PGES3 [4]: 1.14 RQ
Striatum gene expression: PGES3 [4]: 0.92 RQ
Brainstem gene expression: COX 2 (COX-2): 3.34 RQ
Cerebellum gene expression: COX 2 (COX-2): 1.41 RQ
Cortex gene expression: COX 2 (COX-2): 1.29 RQ
Hippocampus gene expression: COX 2 (COX-2): 1.12 RQ
Rest of brain gene expression: COX 2 (COX-2): 1.21 RQ
Striatum gene expression: COX 2 (COX-2): 0.75 RQ
Brainstem gene expression: iPLA2 (group 6 iPLA2): 1.10 RQ
Cerebellum gene expression: iPLA2 (group 6 iPLA2): 1.00 RQ
Cortex gene expression: iPLA2 (group 6 iPLA2): 1.09 RQ
Hippocampus gene expression: iPLA2 (group 6 iPLA2): 1.05 RQ
Rest of brain gene expression: iPLA2 (group 6 iPLA2): 1.10 RQ
Striatum gene expression: iPLA2 (group 6 iPLA2): 0.90 RQ
Mean body weight at 15 weeks [5]: 724 ± 18 g

— article PMC3927474, “Whole body synthesis rates of DHA from α-linolenic acid are greater than brain DHA accretion and uptake rates in adult rats” (Journal of Lipid Research, 2014)
